Data taken from patent US11014904B2, “1,2,4-triazine-3-amine derivative, preparation method therefor, and use thereof in medicine” (Jiangsu Hengrui Medicine Co., Ltd., priority 2017, dated 2021).

Biological target: T1, adenosine A2b receptor (A2bR) (Homo sapiens, UniProt P29275)
T1 construct: expressed in transfected cells; host or cells: CHO-K1
T1 sequence (P29275 1-332): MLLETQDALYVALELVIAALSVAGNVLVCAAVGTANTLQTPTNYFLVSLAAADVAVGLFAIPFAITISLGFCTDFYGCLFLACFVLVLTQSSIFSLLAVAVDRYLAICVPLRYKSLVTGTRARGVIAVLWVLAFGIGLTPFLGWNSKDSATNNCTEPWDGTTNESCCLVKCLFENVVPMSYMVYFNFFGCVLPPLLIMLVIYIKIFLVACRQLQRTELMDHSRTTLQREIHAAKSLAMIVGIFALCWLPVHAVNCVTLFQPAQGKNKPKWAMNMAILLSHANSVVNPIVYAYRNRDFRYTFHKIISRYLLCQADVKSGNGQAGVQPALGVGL
Assay: Inhibition of the adenosine A2b receptor cAMP signaling pathway in CHO-K1/A2bR cells (HTRF)
Assay type: cell-based
Conditions: ethyl carbazole 1 μM, Table 2
Description: Determination of the inhibition activity of the compounds of the present invention on the adenosine A2a receptor (A2aR) cAMP signaling pathway, the adenosine A2b receptor (A2bR) cAMP signaling pathway, the adenosine A1 receptor (A1R) cAMP signaling pathway and the adenosine A3 receptor (A3R) cAMP signaling pathway.
The inhibition activity of the compounds of the present invention on the adenosine A2a receptor (A2aR) cAMP signaling pathway, the adenosine A2b receptor cAMP signaling pathway, the adenosine A1 receptor cAMP signaling pathway and the adenosine A3 receptor cAMP signaling pathway was determined by the following method. The experimental method is briefly described as follows:
2.2 Adenosine A2b Receptor
CHO-K1/A2bR cells were cultured in DMEM/F12 medium containing 10% fetal bovine serum and 1 mg/ml G418. The cells were digested with the cell separation buffer during the experiment. The cells were resuspended in the balanced salt buffer containing 20 mM HEPES and 0.1% bovine serum albumin and counted, and the cell density was adjusted to 10^6 cells/ml. In the 384-well plate, each well was added with 5 μl of cell suspension, and 2.5 μl of test compound (4× concentration) formulated with the balanced salt buffer containing 20 mM HEPES, 0.1% bovine serum albumin, 54 μM rolipram and 2.7 U/ml adenosine deaminase, and the plate was incubated at room temperature for 30 minutes. Each well was then added with 2.5 μl of […] (4× concentration) (Torcis, 1691/10) formulated with the balanced salt buffer containing 20 mM HEPES, 0.1% bovine serum albumin, 54 μM rolipram and 2.7 U/ml adenosine deaminase, and the plate was incubated at room temperature for 30 minutes. The final concentrations of the compounds were: 100000, 10000, 1000, 100, 10, 1, 0.1 and 0 nM. The final concentration of […] was 1 μM. Intracellular cAMP concentration was detected with the cAMP dynamic 2 kit. cAMP-d2 and Anti-cAMP-Eu-Cryptate were diluted respectively with the cAMP lysis buffer at a ratio of 1:4. Each well was added with 5 μl of diluted cAMP-d2, followed by addition of 5 μl of diluted Anti-cAMP-Eu-Cryptate, and the plate was incubated at room temperature in the dark for 1 hour. The HTRF signal values were read by the PHERAstar multi-function microplate reader.

SMILES	IC50 [nM]
[2H]C([2H])([2H])c1ncnc2ccc(-c3nnc(N)nc3-c3ccc(F)cc3)cc12 [Example 52, 5-(4-Fluorophenyl)-6-(4-(methyl-d3)quinazolin-6-yl)-1,2,4-triazin-3-amine]	14
Cc1ccnc2ccc(-c3nnc(N)nc3-c3ccccc3F)cc12 [Example 17, 5-(2-Fluorophenyl)-6-(4-methylquinolin-6-yl)-1,2,4-triazin-3-amine]	22
Cc1ccnc2c(F)cc(-c3nnc(N)nc3-c3ccccc3)cc12 [Example 16, 6-(8-Fluoro-4-methylquinolin-6-yl)-5-phenyl-1,2,4-triazin-3-amine]	18
Nc1nnc(-c2ccc3ncccc3c2)c(-c2ccccc2)n1 [Example 3, 5-Phenyl-6-(quinolin-6-yl)-1,2,4-triazin-3-amine]	47
[2H]C([2H])([2H])c1ccnc2ccc(-c3nnc(N)nc3-c3ccc(F)cc3)cc12 [Example 22, 5-(4-Fluorophenyl)-6-[4-(trideuteromethyl)-6-quinolinyl]-1,2,4-triazin-3-amine]	7

Results, then the compound that gave them:

IC50 [nM]	SMILES
7	Cc1ncnc2ccc(-c3nnc(N)nc3-c3ccccc3)cc12 [Example 15, 6-(4-Methylquinazolin-6-yl)-5-phenyl-1,2,4-triazin-3-amine]
25	Cc1ncnc2ccc(-c3nnc(N)nc3-c3ccc(F)cc3)cc12 [Example 19, 5-(4-Fluorophenyl)-6-(4-methylquinazolin-6-yl)-1,2,4-triazin-3-amine]
25	Cc1ncnc2c(F)cc(-c3nnc(N)nc3-c3ccccc3)cc12 [Example 45, 6-(8-Fluoro-4-methylquinazolin-6-yl)-5-phenyl-1,2,4-triazin-3-amine]
